# Biological target: ROCK2 (Homo sapiens, UniProt O75116)
# Test: ROCK assay: phosphorylation of FITC peptide substrate, LABCHIP 3000 mobility shift
# Format: biochemical
# Settings: 5 μM ATP, 1.5 μM peptide substrate; read-out: ROCK2 Activity (ROCK IC50 range)
# Method in brief: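 Rho kinase variant phosphorylates 1.5 μM FITC-AHA-AKRRRLSSLRA-OH with 5 μM ATP in 20 mM HEPES pH 7.5, 20 mM MgCl2, 0.015% Brij-35, 4 mM DTT, DMSO <2%. EDTA stops the reaction, and phospho and non-phospho peptides are resolved by LabChip 3000 mobility shift. IC50 from dose-response curve fit.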
# Sequence of ROCK2 (O75116 whole entry, species assumed): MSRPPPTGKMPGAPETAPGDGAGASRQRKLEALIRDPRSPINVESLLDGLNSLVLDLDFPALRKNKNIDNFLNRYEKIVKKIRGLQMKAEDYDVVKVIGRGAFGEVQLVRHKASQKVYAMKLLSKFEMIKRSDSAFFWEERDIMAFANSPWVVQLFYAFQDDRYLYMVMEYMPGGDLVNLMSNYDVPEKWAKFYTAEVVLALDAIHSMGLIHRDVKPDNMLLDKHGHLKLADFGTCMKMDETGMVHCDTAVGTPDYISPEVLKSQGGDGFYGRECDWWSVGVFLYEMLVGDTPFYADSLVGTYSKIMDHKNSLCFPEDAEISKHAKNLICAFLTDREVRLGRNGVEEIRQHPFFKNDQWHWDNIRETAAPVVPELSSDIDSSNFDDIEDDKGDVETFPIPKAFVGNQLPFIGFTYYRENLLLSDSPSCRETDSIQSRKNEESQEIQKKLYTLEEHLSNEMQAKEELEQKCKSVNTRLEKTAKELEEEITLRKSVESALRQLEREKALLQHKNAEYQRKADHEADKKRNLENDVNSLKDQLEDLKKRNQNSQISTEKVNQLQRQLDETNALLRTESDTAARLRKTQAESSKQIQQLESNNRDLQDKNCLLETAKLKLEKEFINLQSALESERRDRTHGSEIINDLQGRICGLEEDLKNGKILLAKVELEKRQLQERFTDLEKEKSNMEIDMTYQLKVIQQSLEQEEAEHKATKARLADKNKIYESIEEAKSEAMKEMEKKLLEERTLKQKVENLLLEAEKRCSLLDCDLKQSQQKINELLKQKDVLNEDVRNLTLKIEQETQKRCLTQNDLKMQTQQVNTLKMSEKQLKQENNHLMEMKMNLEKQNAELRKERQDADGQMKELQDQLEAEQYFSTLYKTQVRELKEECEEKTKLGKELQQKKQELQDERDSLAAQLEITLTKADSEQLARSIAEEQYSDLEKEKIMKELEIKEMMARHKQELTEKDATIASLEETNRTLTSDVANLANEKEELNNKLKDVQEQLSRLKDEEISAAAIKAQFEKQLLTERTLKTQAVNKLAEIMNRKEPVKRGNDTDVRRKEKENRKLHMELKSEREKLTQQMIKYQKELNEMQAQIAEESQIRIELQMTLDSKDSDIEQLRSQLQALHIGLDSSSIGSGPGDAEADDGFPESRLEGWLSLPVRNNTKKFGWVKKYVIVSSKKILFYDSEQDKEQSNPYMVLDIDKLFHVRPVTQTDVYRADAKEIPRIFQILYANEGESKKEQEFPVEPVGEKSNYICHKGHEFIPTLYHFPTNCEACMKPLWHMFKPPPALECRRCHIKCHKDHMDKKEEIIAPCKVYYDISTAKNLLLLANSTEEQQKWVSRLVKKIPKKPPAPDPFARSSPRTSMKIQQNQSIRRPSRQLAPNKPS
row,SMILES,IC50
1,"O=C(NC1CC2(C1)CC(c1n[nH]c(=O)c3ccccc13)C2)N1CCc2cc(-c3cnn(C4CC4)c3)ccc21 [Example 236, 5-(1-cyclopropyl-1H-pyrazol-4-yl)-N-((aR)-6-(4-oxo-3,4-dihydrophthalazin-1-yl)spiro[3.3]heptan-2-yl)indoline-1-carboxamide]",0.2 to 2 nM
2,"Cc1nn(C)c(C)c1-c1ccc2c(c1)CCN2C(=O)NC1CC2(C1)CC(c1n[nH]c(=O)c3ccccc13)C2 [Example 237, N-((aR)-6-(4-oxo-3,4-dihydrophthalazin-1-yl)spiro[3.3]heptan-2-yl)-5-(1,3,5-trimethyl-1H-pyrazol-4-yl)indoline-1-carboxamide]",2.01 to 5 nM
3,"Cn1cc(-c2ccc3c(c2)CCN3C(=O)NC2CC3(C2)CC(c2n[nH]c(=O)c4ccccc24)C3)c(C(F)(F)F)n1 [Example 238, 5-(1-methyl-3-(trifluoromethyl)-1H-pyrazol-4-yl)-N-((aR)-6-(4-oxo-3,4-dihydrophthalazin-1-yl)spiro[3.3]heptan-2-yl)indoline-1-carboxamide]",2.01 to 5 nM
4,"[2H]C([2H])([2H])n1cc(-c2ccc3c(c2)CCN3C(=O)NC2CC3(C2)CC(c2n[nH]c(=O)c4ccccc24)C3)cn1 [Example 239, 5-(1-(^2H3)methyl-1H-pyrazol-4-yl)-N-((aR)-6-(4-oxo-3,4-dihydrophthalazin-1-yl)spiro[3.3]heptan-2 yl)indoline-1-carboxamide]",0.2 to 2 nM
5,"O=C(NC1CC2(C1)CC(c1n[nH]c(=O)c3ccccc13)C2)N1CCc2cc(-c3cnn(C4CCOCC4)c3)ccc21 [Example 240, N-((aR)-6-(4-oxo-3,4-dihydrophthalazin-1-yl)spiro[3.3]heptan-2-yl)-5-(1-(tetrahydro-2H-pyran-4-yl)-1H-pyrazol-4-yl)indoline-1-carboxamide]",2.01 to 5 nM
6,"O=C(NC1CC2(C1)CC(c1n[nH]c(=O)c3ccccc13)C2)N1CCc2cc(-c3cnn(CC4CC4)c3)ccc21 [Example 241, 5-(1-(cyclopropylmethyl)-1H-pyrazol-4-yl)-N-((aR)-6-(4-oxo-3,4-dihydrophthalazin-1-yl)spiro[3.3]heptan-2-yl)indoline-1-carboxamide]",2.01 to 5 nM
7,"CC(C)(C)n1cc(-c2ccc3c(c2)CCN3C(=O)NC2CC3(C2)CC(c2n[nH]c(=O)c4ccccc24)C3)cn1 [Example 242, 5-(1-(tert-butyl)-1H-pyrazol-4-yl)-N-((aR)-6-(4-oxo-3,4-dihydrophthalazin-1-yl)spiro[3.3]heptan-2-yl)indoline-1-carboxamide]",2.01 to 5 nM
8,"O=C(NC1CC2(C1)CC(c1n[nH]c(=O)c3ccccc13)C2)N1CCc2cc(-c3cnn(C4CCOC4)c3)ccc21 [Example 243, N-((aR)-6-(4-oxo-3,4-dihydrophthalazin-1-yl)spiro[3.3]heptan-2-yl)-5-(1-(tetrahydrofuran-3-yl)-1H-pyrazol-4-yl)indoline-1-carboxamide]",2.01 to 5 nM
9,"CC(C)n1cc(-c2ccc3c(c2)CCN3C(=O)NC2CC3(C2)CC(c2n[nH]c(=O)c4ccccc24)C3)c(C(F)(F)F)n1 [Example 244, 5-(1-isopropyl-3-(trifluoromethyl)-1H-pyrazol-4-yl)-N-((aR)-6-(4-oxo-3,4-dihydrophthalazin-1-yl)spiro[3.3]heptan-2-yl)indoline-1-carboxamide]",5.1 to 15 nM
10,"O=C(NC1CC2(C1)CC(c1n[nH]c(=O)c3ccccc13)C2)N1CCc2cc(CCC(F)(F)F)ccc21 [Example 245, N-((aR)-6-(4-oxo-3,4-dihydrophthalazin-1-yl)spiro[3.3]heptan-2-yl)-5-(3,3,3-trifluoropropyl)indoline-1-carboxamide]",5.1 to 15 nM
11,"Cc1nn(C)c(C)c1-c1ccc2c(c1)CN(C(=O)NC1CC3(C1)CC(c1n[nH]c(=O)c4ccccc14)C3)C2 [Example 246, N-((aR)-6-(4-oxo-3,4-dihydrophthalazin-1-yl)spiro[3.3]heptan-2-yl)-5-(1,3,5-trimethyl-1H-pyrazol-4-yl)isoindoline-2-carboxamide]",2.01 to 5 nM
